# In ChEMBL document CHEMBL5032490, “Neuroactive Type-A γ-Aminobutyric Acid Receptor Allosteric Modulator Steroids from the Hypobranchial Gland of Marine Mollusk, Conus geographus” (J Med Chem, 2021):
# Activity calls are given as the source filed them.
# Key:
# [1] = Reduction of ATP and Kcl-induced increase in cytosolic Ca2+ ion concentration mouse […] assessed as neuron population at 10 uM measured after 1 hr by Fura2AM dye based fluorescence microscopic analysis; assay type: functional; set-up: scale not given: the % may be the effect or the level left
# [2] = Reduction of ATP and Kcl-induced increase in cytosolic Ca2+ ion concentration mouse non-peptidergic nociceptive DRG neuron assessed as neuron population at 10 uM measured after 1 hr by Fura2AM dye based fluorescence microscopic analysis; assay type: functional; set-up: scale not given: the % may be the effect or the level left
# HEK = test: Negative allosteric modulation of human GABA receptor expressed in HEK cells assessed as inhibition of GABA-induced current in presence of EC20 concentration of GABA by patch clamp method; assay type: cell-based; conditions: filed as negative allosteric modulator
# Neuron [3] = test: Negative allosteric modulation of mouse GABA receptor in mouse peptidergic nociceptive DRG neurons assessed as inhibition of KCl-induced response at 10 uM; assay type: tissue-based; conditions: filed as negative allosteric modulator
# [4] = target: T1, GABA-A receptor; alpha-2/beta-3/gamma-2 (Homo sapiens, UniProt P18507+P28472+P47869); test: Negative allosteric modulation activity at human GABAA alpha2beta3gamma2 stably expressed in HEK cells by whole cell patch clamp method; assay type: cell-based
# T1 sequence (P18507 whole entry): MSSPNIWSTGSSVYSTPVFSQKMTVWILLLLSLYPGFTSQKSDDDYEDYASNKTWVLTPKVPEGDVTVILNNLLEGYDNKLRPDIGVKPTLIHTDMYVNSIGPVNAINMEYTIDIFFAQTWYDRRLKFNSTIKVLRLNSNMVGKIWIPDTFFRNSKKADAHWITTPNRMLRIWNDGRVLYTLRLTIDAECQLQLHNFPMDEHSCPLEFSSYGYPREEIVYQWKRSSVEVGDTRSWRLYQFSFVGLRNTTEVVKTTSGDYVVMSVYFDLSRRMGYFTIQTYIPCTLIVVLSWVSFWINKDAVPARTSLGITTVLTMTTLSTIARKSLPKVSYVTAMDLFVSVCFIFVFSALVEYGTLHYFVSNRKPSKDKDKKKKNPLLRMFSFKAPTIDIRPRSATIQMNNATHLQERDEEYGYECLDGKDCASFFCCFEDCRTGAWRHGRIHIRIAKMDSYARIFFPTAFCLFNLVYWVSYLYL
# T1 sequence (P28472 whole entry): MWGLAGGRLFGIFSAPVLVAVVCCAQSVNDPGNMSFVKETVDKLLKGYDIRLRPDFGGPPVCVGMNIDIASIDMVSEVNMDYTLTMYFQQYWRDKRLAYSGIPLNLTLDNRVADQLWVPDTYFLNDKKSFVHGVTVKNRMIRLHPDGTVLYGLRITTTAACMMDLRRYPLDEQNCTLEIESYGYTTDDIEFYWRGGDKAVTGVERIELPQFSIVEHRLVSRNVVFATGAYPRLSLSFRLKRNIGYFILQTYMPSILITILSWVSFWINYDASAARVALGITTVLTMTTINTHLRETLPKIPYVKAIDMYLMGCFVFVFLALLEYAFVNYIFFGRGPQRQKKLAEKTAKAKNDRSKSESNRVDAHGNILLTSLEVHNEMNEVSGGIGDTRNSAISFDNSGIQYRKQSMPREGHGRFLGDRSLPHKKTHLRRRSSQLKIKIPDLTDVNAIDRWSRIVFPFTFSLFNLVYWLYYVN
# T1 sequence (P47869 whole entry): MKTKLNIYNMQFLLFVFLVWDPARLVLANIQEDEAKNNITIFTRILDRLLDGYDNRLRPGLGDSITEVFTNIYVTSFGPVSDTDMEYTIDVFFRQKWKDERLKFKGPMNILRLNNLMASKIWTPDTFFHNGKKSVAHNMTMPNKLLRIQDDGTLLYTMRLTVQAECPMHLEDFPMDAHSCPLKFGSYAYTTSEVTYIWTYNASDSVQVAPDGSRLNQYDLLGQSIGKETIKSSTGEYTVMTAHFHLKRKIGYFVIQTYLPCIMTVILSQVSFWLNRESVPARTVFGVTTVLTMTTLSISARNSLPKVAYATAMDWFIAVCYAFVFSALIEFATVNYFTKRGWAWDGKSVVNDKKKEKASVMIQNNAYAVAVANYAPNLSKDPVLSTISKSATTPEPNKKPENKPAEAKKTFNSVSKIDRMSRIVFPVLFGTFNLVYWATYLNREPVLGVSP
# [5] = Induction of cytosolic calcium ion concentration in mouse non-peptidergic nociceptive DRG neuron at 10 uM measured after 1 hr by Fura2AM dye based fluorescence microscopic analysis; assay type: functional
# Neuron [6] = test: Negative allosteric modulation of human GABA receptor expressed in mouse DRG neurons assessed as inhibition of 500 nM GABA-induced response at 0.5 uM; assay type: tissue-based; conditions: filed as negative allosteric modulator
# [7] = target: T2, GABA-A receptor; alpha-3/beta-3/gamma-2 (Homo sapiens, UniProt P18507+P28472+P34903); test: Negative allosteric modulation activity at human GABAA alpha3beta3gamma2 stably expressed in HEK cells by whole cell patch clamp method; assay type: cell-based
# T2 sequence (P18507 whole entry): T1 sequence (P18507 whole entry)
# T2 sequence (P28472 whole entry): T1 sequence (P28472 whole entry)
# T2 sequence (P34903 whole entry): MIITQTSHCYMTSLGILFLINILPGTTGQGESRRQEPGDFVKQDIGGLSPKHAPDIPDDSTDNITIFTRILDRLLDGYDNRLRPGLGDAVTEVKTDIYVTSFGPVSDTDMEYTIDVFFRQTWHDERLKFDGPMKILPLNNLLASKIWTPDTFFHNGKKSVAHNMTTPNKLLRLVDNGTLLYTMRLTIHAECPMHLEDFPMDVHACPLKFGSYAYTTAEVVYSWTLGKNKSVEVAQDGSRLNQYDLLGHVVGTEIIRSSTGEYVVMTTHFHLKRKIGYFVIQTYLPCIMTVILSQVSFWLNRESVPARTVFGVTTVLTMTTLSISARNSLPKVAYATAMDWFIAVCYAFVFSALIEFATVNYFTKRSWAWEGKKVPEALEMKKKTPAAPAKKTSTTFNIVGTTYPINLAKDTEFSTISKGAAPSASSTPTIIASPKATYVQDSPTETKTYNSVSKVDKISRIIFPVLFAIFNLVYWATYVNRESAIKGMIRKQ
# Neuron [8] = test: Negative allosteric modulation of mouse GABA receptor in mouse C-low-threshold mechanoreceptive DRG neurons assessed as inhibition of KCl-induced response at 10 uM; assay type: tissue-based; conditions: filed as negative allosteric modulator
compound,measurement,setting,value
CC(C)CCC[C@@H](C)[C@H]1CC[C@H]2[C@@H]3C(=O)C=C4C=CCC[C@]4(C)[C@H]3CC[C@]12C,Activity,[1],14%
same,Activity,[2],9%
same,Activity,HEK,Active
same,Activity,Neuron [3],Active
same,IC50,[4],15.7 µM
same,Activity,[5],27%
same,Activity,Neuron [6],Active
same,IC50,[7],5.5 µM
same,Activity,Neuron [8],Active
